| melting point [°C] | SMILES |
| --- | --- |
| 148 to 152 | CCOc1ccc(N(c2ccccc2)C2(c3ccc(N(CC)Cc4ccccc4)cc3)OC(=O)c3cc(N(C)C)ccc32)cc1 (centres undefined) |
| 73 to 75 | CCOC(=O)C(=O)C1COc2ccccc2C1=O (centres undefined) |
| 194 to 195 | O=[N+]([O-])c1cc(Cl)c(C=CN2CCN(c3nsc4ccccc34)CC2)cc1Cl |
| 248 to 249 | Cc1nnc(-c2sc(N3CCN(Cc4ccc(F)cc4)C3=O)nc2C)[nH]1 |
| 96.5 to 98 | CCCCN(C(=O)c1ccc(Cl)cc1)[C@@H]1CN(CC)C[C@H]1O (relative stereo) |
| 205 to 206 | CCOC(=O)c1cc2c(nc(C)n2C)c(O)c1CCC(=O)c1ccccc1 |
| 249 to 252 | C=CCNc1c(C#N)cnc2cn[nH]c12 |
| 248 to 250 | Cn1cc(C2=C(c3cn(CCCNC(N)=O)c4ccccc34)C(=O)NC2=O)c2ccccc21 |
| 130 to 131 | COC(=O)C1=Cc2ccc(OCc3nc(-c4ccccc4)oc3C)cc2CC1 |
| 179 to 182 | Cc1c(NC(=O)c2ccc(-c3ccc(F)cc3)cc2)ccc2cc(C(C)N3CCCC3)cnc12 (centres undefined) |
| 172 to 175 | CC(=O)c1cc(N2CCOCC2)ccc1NC(=O)c1ccc(OCc2ccccc2)cc1 |
| 94 to 96 | Cc1c(Cl)c(Oc2ncc(C(F)(F)F)cc2Cl)nn1C(=O)NC1CCCCC1 |
| 189 to 191 | O=c1c2cc(F)c(N3CCCC3)nc2n(-c2ccc(F)cc2F)c(=O)n1O |
| 167 | CCC(O)(CC(=O)OC(C)(C)C)c1cc[nH]c(=O)c1 (centres undefined) |
| 229 to 230 | CCCCn1c(N)c(N=O)c(=O)n(CC2CCCCC2)c1=O |
| 110 to 113 | CCCc1c(OCCCOc2ccc(-c3cscn3)c(OC)c2CCC)ccc2c1OC(CCC(=O)O)CC2 (centres undefined) |
| 177 to 178 | Cc1oc(-c2ccccc2)nc1COc1ccc(COc2ccc(CCC(=O)O)cc2)cc1 |
| 220 | O=C(O)CCc1cc2c(Cl)c(Cl)ccc2n1S(=O)(=O)c1ccccc1 |
| 180 to 181 | Cc1nc2ccccc2n1C(C)(C)CO |
| 125 to 126 | Cc1cccc(C)c1C=NNC(=N)NCc1ccccc1 |
| 172 to 174 | Fc1ccc(-c2nc(SCCCCSc3nc(-c4ccc(F)cc4)c(-c4ccc(F)cc4)[nH]3)[nH]c2-c2ccc(F)cc2)cc1 |
| 151 to 153 | N#Cc1nc(-c2ccccc2)c[nH]1 |
| 127 to 128 | Cc1cc(C)c(-c2cn(C)c3nc(N(C)C)n(C)c(=O)c23)c(C)c1 |
| 155 | COc1cncc(-c2ccc(OC3SCC(OC(C)=O)C(OC(C)=O)C3OC(C)=O)cn2)c1 (centres undefined) |
| 210 to 212 | NC(Cc1cc(O)c2c(c1)C(=O)c1cccc(O)c1C2=O)C(=O)O (centres undefined) |

| melting point [°C] | SMILES |
| --- | --- |
| 68 to 97 | CC(=O)OC1CSC(Oc2cccc(-c3ccccn3)c2)C(OC(C)=O)C1OC(C)=O (centres undefined) |
| 78 to 80 | O=[N+]([O-])c1cccc(/C=C/c2nc(C3CCC3)cs2)c1 |
| 273 to 276 | O=C(O)c1cn(C2COC2)c2cc(F)c(F)c(O)c2c1=O |
| 158 to 160 | CS(=O)(=O)c1ccc(-c2cnn(CC(F)(F)F)c(=O)c2Nc2ccc(F)cc2)cc1 |
| 208 to 210 | CNC(=O)c1cnn2c(C(=O)N3CCNCC3)c(Cc3cccc(F)c3C)c(-c3ccccc3)c2c1 |
| 177 to 179 | CN(C)CCNc1ccc([N+](=O)[O-])c2sc3ccccc3c(=O)c12 |
| 193 to 196 | Nc1ccc2c(c1)CC(N1CCN(CCN3CCOC3=O)CC1)c1ccccc1S2 (centres undefined) |
| 56 to 58 | CC(C)[C@H](C[C@H](N=[N+]=[N-])[C@@H]1C[C@@H](C(C)C)C(=O)O1)C(=O)O |
| 58 to 70 | O=C(O)CC(NC(=O)OCc1ccccc1)C(=O)CON1C(=O)Cc2ccccc21 (centres undefined) |
| 75 | O=C(c1ccc(F)cc1)N1CCC[C@H](c2noc(Cc3ccccc3)n2)C1 |
| 102 to 104 | C=CCNC(=O)N1CC(Oc2ccc(C(F)(F)F)cc2Cl)C1 |
| 144 to 146 | COc1ccc2c(NC(C)=O)c(C(=O)c3ccccc3)[nH]c2c1 |
| 163 to 170 | CC(C)(C)C(O)C(Cn1ccnc1)Oc1ccc(Cl)cc1 (centres undefined) |
| 196 to 198 | COc1cc(-n2cnc(C)c2C)cc2oc(=O)c(C)c(C)c12 |
| 109 | Cn1cncc1CC(=O)c1ccc(Br)cc1 |
| 188 to 190 | CCOC(=O)c1sc(-n2ccc(OCCC3CC3)cc2=O)nc1C |
| 230 to 232 | CCNCC1CCN(c2nc3c(cc2F)c(=O)c(C(=O)O)cn3CC)C1 (centres undefined) |
| 99 to 100 | C#Cc1ccc(=O)oc1 |
| 203 | COC(=O)C1N2C(=O)C(N3C(=O)c4ccccc4C3=O)C2SCC1(C)O (centres undefined) |
| 151 to 152 | CC(C)C(O)C(O)C(O)C(CC1CCCCC1)NC(=O)OC(C)(C)C (centres undefined) |
| 191 to 192 | CCCc1nc2c(N)nc3cc(-c4ccccc4)ccc3c2n1CCCC(C)=NOC |
| 131 to 134 | Nc1ccnc(CSCCO)n1 |
| 210 to 211 | NC(=O)c1nc(-c2ccccc2)c[nH]1 |
| 135 to 137 | CONC(c1ccccc1)c1cc(C(C)(C)C)c(O)c(C(C)(C)C)c1 (centres undefined) |
| 155 to 160 | O=C(CCl)Nc1ccc2cn[nH]c2c1 |

| melting point [°C] | SMILES |
| --- | --- |
| 74.5 to 75.5 | CCC(=O)OCC(OC(=O)CC)C1OC(OC(=O)CC)C(OC(=O)CC)C1OC(=O)CC (centres undefined) |
| 166 to 167 | Cc1ccc(S(=O)(=O)Nc2ccc([N+](=O)[O-])cc2C#N)cc1 |
| 49 to 50 | CCNC(=O)Oc1ccccc1 |
| 150 to 153 | Cc1ncc(CN2CCc3ccccc3C2)c(N)n1 |
| 79 to 81 | CCCCOCCOc1ccc(-c2ccc(N3CC=CC3)c(C=O)c2)cc1 |
| 118 to 119 | Oc1ccc(CCNC[C@H](O)COc2ccccc2)cc1 |
| 158 to 160 | O=C(C(=C1NCCCS1)[N+](=O)[O-])c1ccc([N+](=O)[O-])cc1 |
| 223 to 225 | CCCOC(=O)C(C)NC(=O)C(CC(=O)O)NC(=O)C(C)N (centres undefined) |
| 138 | CCOC(=O)Cn1cc(CC(=O)O)c2ccccc21 |
| 128 to 132 | Cc1ccc(Sc2nc(Cl)cc(OCCOc3ccccc3)n2)cc1 |
| 118 to 120 | COc1ccc(C(=CC#N)c2cccc([N+](=O)[O-])c2)cc1OC |
| 160 to 163 | ON(Cc1ccccc1)Cc1ccc(CN(O)Cc2ccccc2)cc1 |
| 50.5 | CCCCOC(=O)NCCC(=O)O |
| 251 to 253 | CCOC(=O)C1CCN(C(=O)CCCOc2ccc3nc4[nH]c(=O)[nH]c4cc3c2)CC1 |
| 100 to 102 | CCOC(=O)c1cnc2nn(C)cc2c1OCCC(C)C |
| 264 to 266 | Cc1cc2c(c3c(=O)cc(C(=O)O)oc13)OC(C)(C)c1cc(S(=O)(=O)O)ccc1-2 |
| 145 to 149 | O=c1c2ccccc2ccc2ccc(S(=O)(=O)C(F)(F)F)cc12 |
| 68 to 70 | Cc1ccc(S(=O)(=O)OCC2CCN(C(=O)c3cccc(C)c3)CC2)cc1 |
| 177 to 178 | Cc1cnc(-c2ccc(O)cc2)o1 |
| > 300 | COc1ccc2c(c1)N(CC(=O)O)C(=O)C(N)CC2 (centres undefined) |
| 174 to 175 | COC(=O)c1ccc(CNC(=O)c2[nH]c(-c3cccs3)cc2-c2ccc(F)cc2)cn1 |
| 180 to 182 | O=C(O)[C@]1(c2ccc(Br)cc2)CC1(c1ccccc1)c1ccccc1 |
| 92 | N#CC1(Cc2ccccc2)CCN(Cc2ccccc2)CC1 |
| 153 to 154 | Cc1cc(O)c(C)c(C)c1N |
| 171 to 182 | O=C(O)C1C=Nc2c(ccc3cc(C(=O)N4CCc5ccccc5C4)cnc23)C1=O (centres undefined) |

| melting point [°C] | SMILES |
| --- | --- |
| 98 to 100 | CCOC(=O)Cc1cc(O)nc(N(CC)CC)n1 |
| > 300 | O=c1[nH]c(CO)nc2nc(O)cnc12 |
| 140 to 143 | COC(=O)c1occc1CN1C(=O)c2ccccc2C1=O |
| 76 to 78 | O=C(CO)NCc1ccc2ccn(C3CCN(CCc4ccc(F)cc4)CC3)c2c1 |
| 113 to 114 | CCOC(=O)CCCCCc1oc(=O)[nH]c1-c1ccc(Cl)cc1 |
| 132 | COc1cc(C(=O)CCCN2CCC(OC(=O)c3cc(Cl)c(N)c4c3OCC4)C(OC)C2)cc(OC)c1OC (centres undefined) |
| > 275 | COc1ccc(-c2nc(N)n3nc(-c4ccco4)nc3n2)cc1 |
| 208 to 209 | CCn1c(=O)[nH]c2c(C)nn(CC)c2c1=O |
| 89 to 90 | Cc1oc(C=Cc2ccccc2Cl)nc1CC#N |
| 91 to 92 | C=CCOc1cc(-c2nn3c(c2Cl)CCCC3)c(F)cc1Cl |
| 66 | CCOC(=O)CCC(=O)c1cc(-c2ccccc2)nc2ccccc12 |
| 228 to 229 | O=CN1CCN(c2nc3ccc(Cl)ccc-3n2)CC1 |
| 112 to 114 | COc1ccc(Oc2ccccc2)c(N)c1 |
| 228 to 230 | CN(Cc1cccc2c1CN(C1CCC(=O)NC1=O)C2=O)C(=O)c1ccc(Cl)c(Cl)c1 (centres undefined) |
| 144 to 147 | CCOc1ccccc1C(=O)Nc1ccc(C(=O)N2CCC(F)(F)/C(=C\C(=O)N3CCOCC3)c3ccccc32)cc1 |
| 140 to 143 | O=C1c2cc(O)ccc2CC1Cc1ccccc1 (centres undefined) |
| 184 to 185 | c1cc2nc3c(n2nc1N1CCCCC1)CCCC3 |
| 178 to 182 | Cc1ccc(NCC2CCN(C3CCOCC3)CC2)c(C(=O)Nc2ccc(Cl)cn2)c1 |
| 153 to 154 | N#Cc1ccc(ON=C2CCCC(C(=O)O)C2)cc1 (centres undefined) |
| 128 | Cc1cccc(-c2cnn(-c3ccnc(-c4ccc(CN5CCOCC5)cc4)c3)c2)n1 |
| 188 to 190 | NS(=O)(=O)c1ccc(N2CN(C3CCCCC3)CC2=O)c(Cl)c1 |
| 257 to 260 | Cc1ccc(C(=O)NN2CCOCC2)c(Nc2ccc3[nH]ncc3c2)n1 |
| 217 to 220 | CCOC(=O)C(=O)c1csc(NC(=O)Nc2ccccc2)n1 |

| SMILES | melting point [°C] |
| --- | --- |
| Clc1cc2nc(NC3=NCCN3)[nH]c2cc1Cl | 265 to 272 |
| CP1(=O)OCc2ccccc21 (centres undefined) | 70 to 72 |
| COc1ccc2cc(C(=O)CNC(=O)c3cn(C)c4ccccc34)ccc2c1 | 177 to 180 |
| CN1Cc2c(C(=O)OC(C)(C)C)ncn2-c2ccccc2C1=O | 216 to 217 |
| CC(C)NC1CCCCC1O (centres undefined) | 54 to 55 |
| CC(=O)Nc1ccc(Cl)cc1C(=O)c1ccccc1Cl | 108 to 110 |

Source: a melting point compilation (Tetko et al.; mined from patent text by program, amines drawn as free bases though some values may be those of a salt)
